Test results reported in PubChem BioAssay (NCI).
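Cells were grown in 96-well plates and exposed to each compound for 48 hours at five concentrations; endpoints were interpolated linearly between bracketing concentrations, or set to the highest concentration if not reached. GI50 is the concentration that inhibits growth by half. TGI is the concentration that stops growth completely.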

How the values were obtained:
Experiment in all cases: DTP human tumour cell line panel, 48 h
[1] = tested on: LOX IMVI melanoma
[2] = tested on: MALME-3M melanoma
[3] = tested on: MOLT-4 leukemia
[4] = tested on: HCT-116 colon
[5] = tested on: ACHN renal
[6] = tested on: A549 NSCLC
[7] = tested on: UACC-62 melanoma
[8] = tested on: NCI-H522 lung
[9] = tested on: SK-OV-3 ovarian
[10] = tested on: KM12 colon
[11] = tested on: IGROV1 ovarian
[12] = tested on: K-562 leukemia
[13] = tested on: M14 melanoma
[14] = tested on: MDA-MB-231 breast
[15] = tested on: EKVX NSCLC
[16] = tested on: SK-MEL-5 melanoma
[17] = tested on: HOP-92 NSCLC
[18] = tested on: OVCAR-8 ovarian
[19] = tested on: A498 renal
[20] = tested on: UO-31 renal
[21] = tested on: MDA-MB-435
[22] = tested on: SK-MEL-2 melanoma
[23] = tested on: NCI-H460 lung
[24] = tested on: NCI/ADR-RES ovarian
[25] = tested on: HT29 colon
[26] = tested on: RPMI-8226 leukemia
[27] = tested on: HCC-2998 colon
[28] = tested on: NCI-H23 lung
[29] = tested on: U251 CNS
[30] = tested on: NCI-H226 lung
[31] = tested on: SNB-75 CNS
[32] = tested on: SNB-19 CNS
[33] = tested on: HCT-15 colon
[34] = tested on: SF-295 CNS
[35] = tested on: OVCAR-5 ovarian
[36] = tested on: PC-3 prostate
[37] = tested on: MCF7 breast
[38] = tested on: CAKI-1 renal
[39] = tested on: SW-620 colon
[40] = tested on: BT-549 breast
[41] = tested on: T-47D breast
[42] = tested on: HOP-62 NSCLC
[43] = tested on: SK-MEL-28 melanoma
[44] = tested on: SN12C renal
[45] = tested on: OVCAR-4 ovarian
[46] = tested on: SR leukemia
[47] = tested on: OVCAR-3 ovarian
[48] = tested on: UACC-257 melanoma
[49] = tested on: CCRF-CEM leukemia
[50] = tested on: TK-10 renal
[51] = tested on: 786-0 renal
[52] = tested on: SF-268 CNS
[53] = tested on: HL-60(TB) leukemia
[54] = tested on: RXF 393 renal
[55] = tested on: COLO 205 colon

## CC[C@]12C=CCN3CC[C@]4(C(=C(C(=O)OC)C1)Nc1cc(OC)c(OC(C)=O)cc14)[C@@H]32
[1]
  GI50: 254 nM
  TGI: 1270 nM
[2]
  GI50: 1420 nM
  TGI: 16100 nM
[3]
  GI50: 383 nM
  TGI: 14900 nM
[4]
  GI50: 275 nM
  TGI: 1380 nM
[5]
  GI50: 176 nM
  TGI: 2620 nM
[6]
  GI50: 397 nM
  TGI: 19000 nM
[7]
  GI50: 326 nM
  TGI: 3080 nM
[8]
  GI50: 81.9 nM
  TGI: 1040 nM
[9]
  GI50: 325 nM
  TGI: 12500 nM
[10]
  GI50: 303 nM
  TGI: 2640 nM
[11]
  GI50: 473 nM
  TGI: 20400 nM
[12]
  GI50: 274 nM
  TGI: 15400 nM
[13]
  GI50: 181 nM
  TGI: 684 nM
[14]
  GI50: 389 nM
  TGI: 14500 nM
[15]
  GI50: 625 nM
  TGI: 19300 nM
[16]
  GI50: 209 nM
  TGI: 481 nM
[17]
  GI50: 247 nM
  TGI: 10300 nM
[18]
  GI50: 407 nM
  TGI: > 100000 nM
[19]
  GI50: 133 nM
  TGI: 718 nM
[20]
  GI50: 483 nM
  TGI: 5600 nM
[21]
  GI50: 100 nM
  TGI: 319 nM
[22]
  GI50: 689 nM
  TGI: 23000 nM
[23]
  GI50: 360 nM
  TGI: 11600 nM
[24]
  GI50: 339 nM
  TGI: 89900 nM
[25]
  GI50: 1860 nM
  TGI: 11000 nM
[26]
  GI50: 478 nM
  TGI: 12300 nM
[27]
  GI50: 416 nM
  TGI: 6790 nM
[28]
  GI50: 395 nM
  TGI: 18800 nM
[29]
  GI50: 386 nM
  TGI: 12000 nM
[30]
  GI50: 917 nM
  TGI: 21900 nM
[31]
  GI50: 308 nM
  TGI: 21000 nM
[32]
  GI50: 591 nM
  TGI: 21500 nM
[33]
  GI50: 310 nM
  TGI: 1560 nM
[34]
  GI50: 377 nM
  TGI: 14600 nM
[35]
  GI50: 719 nM
  TGI: 16200 nM
[36]
  GI50: 384 nM
  TGI: 15200 nM
[37]
  GI50: 238 nM
  TGI: 14400 nM
[38]
  GI50: 503 nM
  TGI: 15600 nM
[39]
  GI50: 319 nM
  TGI: 10500 nM
[40]
  GI50: 244 nM
  TGI: 674 nM
[41]
  GI50: 1420 nM
  TGI: 17800 nM
[42]
  GI50: 400 nM
  TGI: 14100 nM
[43]
  GI50: 1620 nM
  TGI: 12500 nM
[44]
  GI50: 530 nM
  TGI: 14800 nM
[45]
  GI50: 446 nM
  TGI: 17500 nM
[46]
  GI50: 164 nM
  TGI: 11200 nM
[47]
  GI50: 225 nM
  TGI: 602 nM
[48]
  GI50: 1970 nM
  TGI: 17500 nM
[49]
  GI50: 380 nM
  TGI: 1860 nM
[50]
  GI50: 1020 nM
  TGI: 7510 nM
[51]
  GI50: 318 nM
  TGI: 10000 nM
[52]
  GI50: 399 nM
  TGI: 13200 nM
[53]
  GI50: 184 nM
  TGI: 654 nM
[54]
  GI50: 389 nM
  TGI: 8880 nM
[55]
  GI50: 769 nM
  TGI: 4520 nM
